These results are taken from patent publication US11993596B2, “Fused tri-cyclic compound as PDE3/PDE4 dual inhibitor” (CHIA TAI TIANQING PHARMACEUTICAL GROUP CO., LTD., priority 2018, dated 2024).

Data set [1] relates to TNF-α in human peripheral blood mononuclear cells (hPBMCs). Nature of the data set: Inhibitory activity against TNF-α in human peripheral blood mononuclear cells. The data set is classed as cell-based. The settings on record: PBMC, TNF-α in supernatant, 1 ng/mL LPS, 24 hours, read-out: hPBMC IC50. The source says:
In Vitro Detection of the Inhibitory Activity of Compounds Against TNF-α in Human Peripheral Blood Mononuclear Cells
Experimental objective: to express the anti-inflammatory activity at the cellular level of the test compound based on the level of TNF-α in human peripheral blood mononuclear cells (hPBMCs).
Procedure: • 1. Normal human whole blood was collected into an EDTA anticoagulation tube; • 2. The PBMCs were separated by Ficoll density gradient centrifugation, and then counted. The cell concentration was adjusted to 2×10^6/mL; • 3. To each well of a U-bottomed 96-well plate were added 2×10^5 cells, 1 ng/mL LPS, and DMSO solutions of compound at concentrations of 100 μM, 10 μM, 1 μM, 100 nM, 10 nM, 1 nM, 100 pM and 10 pM, 200 μL per well; • 4. The mixture was incubated for 24 hours, and then the supernatant was collected; • 5. The level of TNF-α in supernatant was detected by ELIZA, Graphpad Prism software was used to fit inhibition curves and IC50 was calculated.

Another data set addresses CYP2C19 (Homo sapiens (Human), UniProt P33261). Nature of the data set: Inhibition of human liver microsomal cytochrome P450 isoenzyme CYP2C19. The class given is in vitro ADME. To be noted: human liver microsomes, probe substrate (S)-mephenytoin. The procedure:
(§1) Inhibitory Effect on the Activity of Isoenzymes (CYP1A2, CYP2C9, CYP2C19, CYP2D6 and CYP3A4) of Human Liver Microsomal Cytochrome P450
(§2) A total of 5 specific probe substrates of 5 isoenzymes of CYP, namely phenacetin (CYP1A2), diclofenac (CYP2C9), (S)-mephenytoin (CYP2C19), dextromethorphan (CYP2D6) and midazolam (CYP3A4) are each co-incubated with human liver microsomes and test compound, and then reduced nicotinamide adenine dinucleotide phosphate (NADPH) was added to initiate the reaction.
Background: Liver microsomes are a subcellular fraction often used to study metabolism.

The target of the next data set is CYP2D6 (Homo sapiens (Human), UniProt P10635). The data set is described as follows: Inhibition of human liver microsomal cytochrome P450 isoenzyme CYP2D6. The data set is classed as in vitro ADME. To be noted: human liver microsomes, probe substrate dextromethorphan. The procedure: as §1, §2
CYP2D6, sequence (P10635 whole entry): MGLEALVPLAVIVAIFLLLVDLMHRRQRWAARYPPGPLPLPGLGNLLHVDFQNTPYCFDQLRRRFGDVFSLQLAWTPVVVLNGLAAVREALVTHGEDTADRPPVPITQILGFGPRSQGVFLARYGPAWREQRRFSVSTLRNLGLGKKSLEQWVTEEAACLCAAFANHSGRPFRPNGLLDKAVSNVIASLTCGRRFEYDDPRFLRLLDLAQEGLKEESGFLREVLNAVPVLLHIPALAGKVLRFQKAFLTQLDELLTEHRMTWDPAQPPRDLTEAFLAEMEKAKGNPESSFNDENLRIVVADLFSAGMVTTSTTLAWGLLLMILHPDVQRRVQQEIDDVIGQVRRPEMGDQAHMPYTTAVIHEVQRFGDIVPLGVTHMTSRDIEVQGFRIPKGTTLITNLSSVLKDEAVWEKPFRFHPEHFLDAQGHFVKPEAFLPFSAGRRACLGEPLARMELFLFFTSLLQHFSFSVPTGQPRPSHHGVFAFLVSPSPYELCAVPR
A short description of data set [2]: Pharmacokinetic experiment in beagle dogs. The data set is classed as in vivo. To be noted: male, dog, plasma. The procedure:
Pharmacokinetic Experiment in Beagle Dogs
In this study, male beagle dogs were selected as test animals, and liquid chromatography-tandem mass spectrometry (LC-MS/MS) method was used for quantitatively measuring the drug concentration in plasma of beagle dogs at different time points after intravenous injection or oral administration of compound WX036 so as to evaluate the pharmacokinetic characteristics of the compound WX036 in beagle dogs.
The clear solution of compound WX036 was injected into two 10-12 kg beagle dogs via the cephalic vein or saphenous vein, and the clear solution of test compound was administered intragastrically to two 10-12 kg beagle dogs (overnight fasted). The animals were all subjected to approximately 500 μL of blood collection each time from peripheral veins at 0.0333, 0.0833, 0.25, 0.5, 1, 2, 4, 6, 8, and 24 hours post-dose, and the blood was transferred into commercial centrifuge tubes containing 0.85-1.15 mg of K2 EDTA*2H2O anticoagulant, and plasma was taken by centrifugation at 3000 g for 10 minutes at 4° C. The plasma concentration was measured by LC-MS/MS method, and the relevant pharmacokinetic parameters were calculated by WinNonlin™ Version 6.3 (Pharsight, Mountain View, CA) pharmacokinetic software using non-compartmental model linear logarithmic trapezoid method.

In a further data set the target is CYP1A2 (Homo sapiens (Human), UniProt P05177). Nature of the data set: biochemical. The class given is in vitro ADME. The procedure: as §1, §2
CYP1A2, sequence (P05177 whole entry): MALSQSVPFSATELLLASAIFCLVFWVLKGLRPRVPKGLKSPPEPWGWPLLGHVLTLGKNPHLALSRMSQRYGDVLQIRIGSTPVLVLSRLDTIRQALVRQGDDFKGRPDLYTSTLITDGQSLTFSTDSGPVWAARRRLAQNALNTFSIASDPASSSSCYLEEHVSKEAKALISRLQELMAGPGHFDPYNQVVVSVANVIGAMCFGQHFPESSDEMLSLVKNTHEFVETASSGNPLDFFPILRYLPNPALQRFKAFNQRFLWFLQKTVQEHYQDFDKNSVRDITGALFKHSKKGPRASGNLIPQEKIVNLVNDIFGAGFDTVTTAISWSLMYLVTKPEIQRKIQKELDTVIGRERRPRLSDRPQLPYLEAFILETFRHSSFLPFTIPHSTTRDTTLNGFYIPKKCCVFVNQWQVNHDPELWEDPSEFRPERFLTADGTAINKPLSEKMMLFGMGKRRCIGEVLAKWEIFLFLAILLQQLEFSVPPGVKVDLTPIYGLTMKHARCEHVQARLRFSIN
A further data set has as its target CYP3A4 (Homo sapiens (Human), UniProt P08684). Nature of the data set: Inhibition of human liver microsomal cytochrome P450 isoenzyme CYP3A4. The data set is classed as in vitro ADME. The settings on record: human liver microsomes, probe substrate midazolam. The procedure:
as §1, §2

For data set [3] the following is noted: reported in literature; cited from earlier work.
For data set [4] the following is noted: reported in literature; cited from earlier work. The source holds these as a separate data set.
The next data set concerns the target CYP2C9 (Homo sapiens (Human), UniProt P11712). Nature of the data set: Inhibition of human liver microsomal cytochrome P450 isoenzyme CYP2C9. The class given is in vitro ADME. The settings on record: human liver microsomes, probe substrate diclofenac. The procedure:
as §1, §2

[5] abbreviates: intravenous injection 0.5 mg/kg.

CYP3A4, sequence (P08684 whole entry): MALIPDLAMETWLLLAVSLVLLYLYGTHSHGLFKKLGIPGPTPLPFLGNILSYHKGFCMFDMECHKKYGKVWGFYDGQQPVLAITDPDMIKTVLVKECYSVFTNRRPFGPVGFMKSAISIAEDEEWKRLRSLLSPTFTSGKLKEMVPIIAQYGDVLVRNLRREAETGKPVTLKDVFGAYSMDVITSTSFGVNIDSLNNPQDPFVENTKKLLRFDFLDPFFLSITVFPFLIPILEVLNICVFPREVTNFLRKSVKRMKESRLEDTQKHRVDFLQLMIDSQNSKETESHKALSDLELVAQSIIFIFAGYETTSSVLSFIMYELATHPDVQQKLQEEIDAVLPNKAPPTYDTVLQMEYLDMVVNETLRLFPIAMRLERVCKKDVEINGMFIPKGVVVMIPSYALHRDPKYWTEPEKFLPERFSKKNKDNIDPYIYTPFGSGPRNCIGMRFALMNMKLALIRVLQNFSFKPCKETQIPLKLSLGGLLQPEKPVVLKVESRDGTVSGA
CYP2C19, sequence (P33261 whole entry): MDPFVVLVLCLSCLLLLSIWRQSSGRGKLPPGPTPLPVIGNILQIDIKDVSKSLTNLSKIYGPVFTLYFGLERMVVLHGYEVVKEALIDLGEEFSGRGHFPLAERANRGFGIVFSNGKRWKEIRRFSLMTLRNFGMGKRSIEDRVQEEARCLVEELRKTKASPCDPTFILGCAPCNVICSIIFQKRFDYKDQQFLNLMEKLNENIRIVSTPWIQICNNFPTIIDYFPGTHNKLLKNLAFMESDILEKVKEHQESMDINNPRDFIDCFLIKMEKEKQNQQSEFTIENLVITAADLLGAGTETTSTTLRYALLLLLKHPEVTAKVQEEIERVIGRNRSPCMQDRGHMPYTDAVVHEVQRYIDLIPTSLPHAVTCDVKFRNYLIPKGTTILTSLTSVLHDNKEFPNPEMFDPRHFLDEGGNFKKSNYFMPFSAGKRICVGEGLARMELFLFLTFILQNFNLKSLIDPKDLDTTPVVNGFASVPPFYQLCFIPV
CYP2C9, sequence (P11712 whole entry): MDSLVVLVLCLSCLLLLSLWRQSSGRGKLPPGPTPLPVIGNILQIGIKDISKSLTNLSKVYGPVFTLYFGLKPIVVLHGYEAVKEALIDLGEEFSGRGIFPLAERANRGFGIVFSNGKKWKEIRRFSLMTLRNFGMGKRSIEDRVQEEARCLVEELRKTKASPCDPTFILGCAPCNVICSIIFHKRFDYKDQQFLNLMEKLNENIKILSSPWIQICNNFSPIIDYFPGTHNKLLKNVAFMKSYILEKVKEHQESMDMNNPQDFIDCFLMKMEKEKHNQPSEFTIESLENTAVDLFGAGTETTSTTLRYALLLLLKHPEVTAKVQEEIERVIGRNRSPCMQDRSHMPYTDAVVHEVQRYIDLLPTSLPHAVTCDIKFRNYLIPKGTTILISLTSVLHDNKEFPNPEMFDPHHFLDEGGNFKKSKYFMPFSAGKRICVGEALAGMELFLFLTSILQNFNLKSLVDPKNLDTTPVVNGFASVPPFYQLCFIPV

Turning to `CCOc1cc2c(cc1OC)-c1c/c(=N\c3c(C)cc(C)cc3C)n(CCNc3nc[nH]n3)c(=O)n1CC2` [WX003], the IC50 in data set [1] is 3100 pM.

In the case of `CCOc1cc2c(cc1OC)-c1c/c(=N\c3c(C)cc(C)cc3C)n(CCNC(=O)c3cnn[nH]3)c(=O)n1CC2` [WX016], the IC50 in data set [1] was found to be 2800 pM.

For the compound `CCOc1cc2c(cc1OC)-c1c/c(=N\c3c(C)cc(C)cc3C)n(CCC(=O)Nc3nnc[nH]3)c(=O)n1CC2` [WX054], the IC50 in data set [1] amounted to 1800 pM.

Turning to `CCOc1cc2c(cc1OC)-c1c/c(=N\c3c(C)cc(C)cc3C)n(CCNC(=O)c3c(O)nnn3C)c(=O)n1CC2` [WX036], the IC50 at CYP2C19, on CYP2D6, against CYP1A2 and at CYP3A4 was 50 µM throughout. For the same compound, the clearance in data set [2] (setting [5]) was found to be 70.3 mL/min/kg. Besides, the half-life in data set [2] (setting [5]) is 18 min. Besides, the bioavailability in [2] (oral administration 3 mg/kg) was determined as 7.5%.

With `CCOc1cc2c(cc1OC)-c1c/c(=N\c3c(C)cc(C)cc3C)n(CCNC(=O)c3ccn[nH]3)c(=O)n1CC2` [WX018], the IC50 in data set [1] was 90 pM.

As to `CCOc1cc2c(cc1OC)-c1c/c(=N\c3c(C)cc(C)cc3C)n(CCNC(=O)c3nnc[nH]3)c(=O)n1CC2` [WX015], the IC50 in [1] turned out to be 360 pM.

On to `COc1cc2c(cc1OC)-c1cc(Oc3c(C(C)C)cccc3C(C)C)nc(=O)n1CC2` [RPL565], for which the solubility entry in data set [3] is on record as “poor”. Besides, in data set [4], the plasma clearance entry was “high”.

In the case of `COc1cc2c(cc1OC)-c1c/c(=N\c3c(C)cc(C)cc3C)n(CCNC(N)=O)c(=O)n1CC2` [RPL554], the solubility entry in data set [3] is “poor”. For the same compound, the plasma clearance entry in data set [4] was “high”.

`CCOc1cc2c(cc1OC)-c1c/c(=N\c3c(C)cc(C)cc3C)n(CCNc3nc[nH]n3)c(=O)n1CCC2` [WX004]: the IC50 in data set [1] is 330 pM.

As for `CCOc1cc2c(cc1OC)-c1c/c(=N\c3c(C)cc(C)cc3C)n(CCNC(=O)c3nnc[nH]3)c(=O)n1CCC2` [WX047], in data set [1], the IC50 is 250 pM.

Regarding `CCOc1cc2c(cc1OC)-c1c/c(=N\c3c(C)cc(C)cc3C)n(CCNC(=O)c3[nH]nnc3OC)c(=O)n1CC2` [WX026], the IC50 at CYP2C19 came to 50 µM; against CYP2D6, 50 µM; against CYP2C9 it was 20 µM; on CYP1A2 it was 50 µM; against CYP3A4, 16 µM.

What is called IC50 is the concentration that inhibits the measured activity by half. One may read the clearance as the volume of plasma or blood freed of the substance per unit of time. High values mean efficient removal, low ones inefficient removal. A word on the half-life: it is the time needed for the level to fall by half in the phase considered. Low values mean rapid decline, high ones slow decline. Usually bioavailability stands for the share of a dose that reaches the circulation, judged against a reference dose that is usually intravenous. Low values mean little systemic uptake, high ones much systemic uptake.
